This experiment deals with T1, soluble guanylate cyclase (sGC) (Homo sapiens, UniProt Q02108+Q02153).
T1 construct: endogenously expressing soluble guanylate cyclase (sGC); endogenous in cells; host or cells: HEK293
T1 sequence (Q02153 1-619): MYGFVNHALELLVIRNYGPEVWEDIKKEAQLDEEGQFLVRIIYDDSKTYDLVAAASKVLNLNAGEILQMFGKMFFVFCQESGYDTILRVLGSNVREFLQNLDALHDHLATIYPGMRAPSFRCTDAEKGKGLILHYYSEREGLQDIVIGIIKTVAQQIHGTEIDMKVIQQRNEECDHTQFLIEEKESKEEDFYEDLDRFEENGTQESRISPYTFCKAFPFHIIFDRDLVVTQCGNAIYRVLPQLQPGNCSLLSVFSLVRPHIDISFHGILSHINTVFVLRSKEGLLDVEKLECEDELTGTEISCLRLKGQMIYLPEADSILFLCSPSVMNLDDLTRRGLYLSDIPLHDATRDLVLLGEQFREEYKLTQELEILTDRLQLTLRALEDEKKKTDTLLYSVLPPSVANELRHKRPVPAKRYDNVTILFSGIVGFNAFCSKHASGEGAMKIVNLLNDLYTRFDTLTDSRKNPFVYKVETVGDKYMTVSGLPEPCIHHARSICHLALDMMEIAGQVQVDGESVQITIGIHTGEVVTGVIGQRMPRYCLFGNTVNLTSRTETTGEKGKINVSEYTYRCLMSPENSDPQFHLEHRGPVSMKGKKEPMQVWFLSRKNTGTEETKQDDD
T1 sequence (Q02108 1-690): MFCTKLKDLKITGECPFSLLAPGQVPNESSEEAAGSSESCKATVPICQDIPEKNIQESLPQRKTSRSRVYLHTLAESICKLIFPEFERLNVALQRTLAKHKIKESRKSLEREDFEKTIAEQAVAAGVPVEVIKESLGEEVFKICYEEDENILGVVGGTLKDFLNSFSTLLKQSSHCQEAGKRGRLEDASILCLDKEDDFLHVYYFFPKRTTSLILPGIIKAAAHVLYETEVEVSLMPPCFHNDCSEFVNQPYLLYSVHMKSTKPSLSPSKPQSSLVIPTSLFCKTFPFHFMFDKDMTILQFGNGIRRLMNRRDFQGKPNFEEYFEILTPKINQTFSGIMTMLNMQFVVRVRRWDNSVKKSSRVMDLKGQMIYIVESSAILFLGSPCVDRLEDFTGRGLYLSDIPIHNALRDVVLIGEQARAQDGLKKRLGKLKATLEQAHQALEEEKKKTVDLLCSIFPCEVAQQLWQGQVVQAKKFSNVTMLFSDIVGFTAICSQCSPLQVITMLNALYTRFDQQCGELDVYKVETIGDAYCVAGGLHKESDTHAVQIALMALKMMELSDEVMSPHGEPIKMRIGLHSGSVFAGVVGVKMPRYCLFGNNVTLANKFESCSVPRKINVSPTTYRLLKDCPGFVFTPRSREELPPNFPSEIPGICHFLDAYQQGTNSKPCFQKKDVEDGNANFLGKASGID
Nature of the experiment: sGC-HEK-cGMP assay (run with SNP incubation). To be noted: for EC50: in the presence of 10 μM SNP; for Emax: 10 μM SNP, 100% = 30 μM BAY 41-2272 with 10 μM SNP, read-out: HEK assay Emax-unconstrained (Percent); for HEK MEC-10: concentration that would elicit 10% of the Emax in the presence of 10 μM SNP. The experiment is classed as cell-based. The protocol: Biological Activity Measurement by the sGC-HEK-cGMP Assay
(Assay Run with SNP Incubation)
Human embryonic kidney cells (HEK293), endogenously expressing soluble guanylate cyclase (sGC), were used to evaluate the activity of test compounds. Compounds stimulating the sGC receptor should cause an increase in the intracellular concentration of cGMP. HEK 293 cells were seeded in Dulbecco's Modification of Eagle's Medium supplemented with fetal bovine serum (10% final) and L-glutamine (2 mM final) in a 2004 volume at a density of 1×10^5 cells/well in a poly-D-lysine coated 96 well flat bottom plate and grown overnight at 37° C. Medium was aspirated and cells were washed with 1× Hank's Buffered Saline Salt Solution (2004). Cells were then incubated for 15 minutes at 37° C. with 0.5 mM 3-isobutyl-1-methylxanthine (2004). Test article and sodium nitroprusside were then added to the assay mixture (24 each) and incubated at 37° C. for 10 minutes. After the 10 minute incubation, the assay mixture was aspirated and 0.1M HCl (2004) was added to the cells. The plate was incubated at 4° C. for 30 minutes in the 0.1M HCl to stop the reaction and lysed the cells. The plates were then centrifuged at 1,200 g for 5 minutes at room temperature. Supernatants were collected and transferred to a new flat bottom 96 well plate for analysis. Vehicle controls were carried out using DMSO (1%). A known sGC stimulator, BAY 41-2272, was used as the positive control. Samples were diluted with an equal volume of 1 M Ammonium Acetate (pH 7) to neutralize samples for better chromatography. A 2×cGMP standard curve was prepared in 0.1 M HCl and then diluted with an equal volume of 1 M Ammonium Acetate, with the following final concentrations in nM: 1024, 512, 256, 128, 64, 32, 16, 8, 4, 2, 1.cGMP concentrations were determined from each sample using the LC/MS conditions (Table 2 below) and calculated standard curve. EC50 values were calculated from concentration-response curves generated with GraphPad Prism Software.

[1] abbreviates: Table 3E, read-out: HEK assay EC50.
Setting [2] is: top of concentration-response curve not fitted to 100%, Table 3E, read-out: HEK assay EC50-unconstrained.
[3] abbreviates: Table 3A, top of concentration-response curve not fitted to 100%.
[4] abbreviates: Table 3D, read-out: HEK assay EC50.
[5] abbreviates: top of concentration-response curve not fitted to 100%, Table 3D, read-out: HEK assay EC50-unconstrained.
Where [6] appears, read: Table 3C, top of concentration-response curve not fitted to 100%.
Setting [7] is: Table 3F, read-out: HEK assay EC50.
The mark [8] stands for this setting: top of concentration-response curve not fitted to 100%, Table 3F, read-out: HEK assay EC50-unconstrained.

Like-named read-outs stand apart in the source and are kept apart here.

In general, EC50 refers to the concentration that produces a half-maximal response. Broadly, the Emax is the maximal effect, on the per cent scale that the assay sets.

On to `Nc1nc(-c2cc(-c3ccon3)n(Cc3ccccc3F)n2)ncc1N1CC(C(F)(F)F)OC1=O` (stereo not drawn) [Compound 83, 3-(4-amino-2-(1-(2-fluorobenzyl)-5-(isoxazol-3-yl)-1H-pyrazol-3-yl)pyrimidin-5-yl)-5-(trifluoromethyl)oxazolidin-2-one], for which the EC50 by setting is: under setting [1], 60 to 100 µM; under setting [2], 0.5 to 1 µM.

Consider `CN(c1ccccc1)S(=O)(=O)c1cnc(-c2cc(-c3ccon3)n(Cc3ccccc3F)n2)[nH]c1=O` [Compound 25], for which the Emax under setting [3] lay in the range of 60 to 80%. Also, the “HEK MEC-10” value (Table 3D) was “C (0.1 to <1 μM)”. Besides, the EC50 was less than 20 µM under setting [4] and 0.5 to 1 µM under setting [5].

Turning to `Nc1nc(-c2cc(-c3ccon3)n(Cc3ccccc3F)n2)ncc1NC(=O)CCC(F)(F)F` [Compound 111], the maximum response (Emax) under setting [6] is 60 to 80%. Moreover, the “HEK MEC-10” value (Table 3F) is “B (0.01 to <0.1 μM)”. In addition, the EC50 under setting [7] is less than 20 µM and the EC50 under setting [8] was in the range of 0.01 to 0.5 µM.

For the compound `Oc1nc(-c2cc(-c3ccon3)n(Cc3cccc(Cl)c3F)n2)ncc1Cl` [Compound 82], the Emax (Table 3B, top of concentration-response curve not fitted to 100%) lay in the range of 40 to 60%. Moreover, the “HEK MEC-10” value (Table 3E) was “B (0.01 to <0.1 μM)”. The EC50 by setting is: under setting [1], 40 to 60 µM; under setting [2], 0.01 to 0.5 µM.

For `CN(C)S(=O)(=O)c1cnc(-c2cc(-c3ccon3)n(Cc3ccccc3F)n2)[nH]c1=O` [Compound 22], under setting [3], the Emax lay within 80 to 100%. Moreover, the “HEK MEC-10” value (Table 3D) is given as “D (1 to <10 μM)”. Also, the concentration for a half-maximal effect (EC50) under setting [4] is less than 20 µM and the EC50 under setting [5] fell in the range of 1 to 5 µM.

With `CN(Cc1ccccc1)S(=O)(=O)c1cnc(-c2cc(-c3ccon3)n(Cc3ccccc3F)n2)[nH]c1=O` [Compound 16], the Emax under setting [3] is 60 to 80%. For the setting “Table 3D”, the “HEK MEC-10” value is “C (0.1 to <1 μM)”. The EC50 under setting [4] is less than 20 µM and the 50% effective concentration (EC50) under setting [5] lay within 0.5 to 1 µM.

As for `Oc1nc(-c2cc(-c3ncco3)n(Cc3ccccc3F)n2)ncc1Sc1ccccn1` [Compound 7, 2-(1-(2-fluorobenzyl)-5-(oxazol-2-yl)-1H-pyrazol-3-yl)-5-(pyridin-2-ylthio)pyrimidin-4-ol], under setting [3], the Emax lay within 60 to 80%. Also, the “HEK MEC-10” value (Table 3D) is given as “B (0.01 to <0.1 μM)”. The EC50 under setting [4] was less than 20 µM and the EC50 under setting [5] is 0.01 to 0.5 µM.

As for `Oc1nc(-c2cc(-c3ccon3)n(Cc3ccccc3F)n2)ncc1Sc1ccc(C(F)(F)F)cc1` [Compound 17, 2-(1-(2-fluorobenzyl)-5-(isoxazol-3-yl)-1H-pyrazol-3-yl)-5-(4-(trifluoromethyl)phenylthio)pyrimidin-4-ol], the EC50 under setting [4] was in the range of 1200 to 7000 µM.

For the compound `COc1ccc(C2(C(=O)Nc3cnc(-c4cc(-c5ccon5)n(Cc5ccccc5F)n4)nc3N)CC2)cc1` [Compound 12], under setting [3], the maximal effect (Emax) lay within 60 to 80%. The “HEK MEC-10” value (Table 3D) was “B (0.01 to <0.1 μM)”. The EC50 reads like this: under setting [4], less than 20 µM; under setting [5], 0.01 to 0.5 µM.

For the compound `Fc1ccccc1Cn1nc(-c2ncc(Br)c(OCc3ccccc3)n2)cc1-c1ccon1` [Compound 50], the concentration giving a half-maximal response (EC50) under setting [4] was in the range of 1200 to 7000 µM.

On to `Oc1nc(-c2cc(-c3ncco3)n(Cc3ccccc3F)n2)ncc1Sc1ccccc1` [Compound 20, 2-(1-(2-fluorobenzyl)-5-(oxazol-2-yl)-1H-pyrazol-3-yl)-5-(phenylthio)pyrimidin-4-ol], for which the Emax under setting [3] lay in the range of 40 to 60%. Moreover, the “HEK MEC-10” value (Table 3D) was “C (0.1 to <1 μM)”. For the same compound, the EC50 is, setting by setting: under setting [4], 20 to 40 µM; under setting [5], 1 to 5 µM.

Regarding `Nc1ccnc(-c2cc(-c3ccon3)n(Cc3c(F)ccc(F)c3F)n2)n1` [Compound 15], the Emax under setting [3] was 20 to 40%. Also, the “HEK MEC-10” value (Table 3D) is recorded as “D (1 to <10 μM)”. Moreover, the EC50 runs as follows: under setting [4], 40 to 60 µM; under setting [5], 1 to 5 µM.

`Nc1nc(-c2cc(-c3ccon3)n(Cc3cccc(F)c3F)n2)ncc1NC(=O)c1cc[nH]c1` [Compound 105]: under setting [6], the Emax was in the range of 60 to 80%. Also, the “HEK MEC-10” value (Table 3F) is “B (0.01 to <0.1 μM)”. In addition, the EC50 by setting is: under setting [7], less than 20 µM; under setting [8], 0.5 to 1 µM.

`Nc1nc(-c2cc(-c3ccon3)n(Cc3ccccc3F)n2)ncc1NC(=O)C1(c2ccc(F)cc2)CC1` [Compound 13]: the maximal effect (Emax) under setting [3] was 80 to 100%. Further, the “HEK MEC-10” value (Table 3D) is “B (0.01 to <0.1 μM)”. The EC50 was less than 20 µM under setting [4] and 0.01 to 0.5 µM under setting [5].

These data come from patent publication US20150342954A1, “2-BENZYL, 3-(PYRIMIDIN-2-YL) SUBSTITUTED PYRAZOLES USEFUL AS SGC STIMULATORS” (IRONWOOD PHARMACEUTICALS, INC., priority 2011, published 2015).
